Experiment [1] concerns HL-60. Description: Cytotoxicity tested against drug resistant HL60/ADR cell line at 1 uM dose of LY-117018. The note with it: Homo sapiens. Format: functional, cell-based.
Experiment [2] relates to HL-60. Description: Cytotoxicity tested against drug resistant HL60/ADR cell line at 5 uM dose of LY-117018. Format: functional, cell-based. The note with it: Homo sapiens.
For experiment [3], the system named is HL-60. Put plainly: Ability to enhance the cytotoxicity of doxorubicin against […] HL60/ADR cell line expressed as reversal factor (RF) at 1 uM. Format: functional, Homo sapiens.
The test system of experiment [4] is HL-60. Description: Ability to enhance the cytotoxicity of doxorubicin against […] HL60/ADR cell line expressed as reversal factor (RF) at 5 uM. Type of experiment: functional, Homo sapiens.
Experiment [5] deals with HL-60. Put plainly: Cytotoxicity against HL60/Vinc cell line at 0.5 uM dose of LY-329146. Type of experiment: functional, cell-based. Conditions: Homo sapiens.
For experiment [6], the system named is HL-60. Description: Cytotoxicity tested against HL60/Vinc cell line at 1 uM dose of LY-329146 at 1 uM. The note with it: Homo sapiens. Format: functional, cell-based.
Experiment [7] concerns HL-60. Put plainly: Cytotoxicity tested against HL60/Vinc cell line at 5 uM dose of LY-329146. Conditions: Homo sapiens. Format: functional, cell-based.
The subject of experiment [8] is HL-60. Description: Cytotoxicity against drug resistant HL60/ADR cell line at 1 uM dose of LY-329146. Conditions: Homo sapiens. Type of experiment: functional, cell-based.
Experiment [9] relates to HL-60. Put plainly: Cytotoxicity tested against drug resistant HL60/ADR cell line at 0.5 uM dose of LY-329146. Type of experiment: functional, cell-based. The note with it: Homo sapiens.
Experiment [10] concerns HL-60. Description: Cytotoxicity tested against drug resistant HL60/ADR cell line at 5 uM dose of LY-329146. Type of experiment: functional, cell-based. Conditions: Homo sapiens.
For experiment [11], the system named is HL-60. Description: Cytotoxicity against drug sensitive HL60/S cell line at 0.5 uM dose of LY-329146. Type of experiment: functional, cell-based. Conditions: Homo sapiens.
Experiment [12] concerns HL-60. Description: Cytotoxicity tested against drug sensitive HL60/S cell line at 1 uM dose of LY-329146. Type of experiment: functional, cell-based. Conditions: Homo sapiens.
Experiment [13] relates to HL-60. Put plainly: Cytotoxicity tested against drug sensitive HL60/S cell line at 5 uM dose of LY-329146. Type of experiment: functional, cell-based. Conditions: Homo sapiens.
Experiment [14] concerns HeLa. Description: Cytotoxicity tested against Hela C1 cells at 1 uM dose of LY-329146. Conditions: Homo sapiens. Format: functional, cell-based.
Experiment [15] has as its system HeLa. Put plainly: Cytotoxicity tested against Hela C1 cells at 2.5 uM dose of LY-329146. Format: functional, cell-based. The note with it: Homo sapiens.
Experiment [16] has as its system HeLa. Description: Cytotoxicity tested against Hela T5 cells at 1 uM dose of LY-329146. Type of experiment: functional, cell-based. The note with it: Homo sapiens.
The test system of experiment [17] is HeLa. Description: Cytotoxicity tested against Hela T5 cells at 2.5 uM dose of LY-329146. Type of experiment: functional, cell-based. Conditions: Homo sapiens.
Experiment [18] deals with HL-60. Put plainly: Cytotoxicity tested against HL60/Vinc cell line. Format: functional, cell-based. The note with it: Homo sapiens.
Experiment [19] concerns HL-60. Description: Cytotoxicity against drug resistant HL60/ADR cell line. Format: functional, cell-based. The note with it: Homo sapiens.
The subject of experiment [20] is HL-60. Put plainly: Cytotoxicity tested against drug sensitive HL60/S cell line. Format: functional, cell-based. The note with it: Homo sapiens.
Experiment [21] relates to HeLa. Description: Ratio of IC50 of oncolytic and its modulator against Hela T5 cells at 2.5 uM dose of LY-329146. Format: functional, Homo sapiens.
Experiment [22] has as its system HeLa. Description: Ratio of IC50 of oncolytic and its modulator against Hela C1 cells at 1 uM dose of LY-329146. Type of experiment: functional, Homo sapiens.
In experiment [23] the test system is HeLa. Description: Ratio of IC50 of oncolytic and its modulator against Hela C1 cells at 2.5 uM dose of LY-329146. Type of experiment: functional, Homo sapiens.
The test system of experiment [24] is HeLa. Put plainly: Ratio of IC50 of oncolytic and its modulator against Hela T5 cells at 1 uM dose of LY-329146. Type of experiment: functional, Homo sapiens.
Experiment [25] concerns HL-60. Put plainly: Ability to inhibit 50 nM Leukotriene C4 (LTC4) uptake into HL60/ADR membrane vesicles. Type of experiment: functional, cell-based. Conditions: Homo sapiens.
Experiment [26] relates to HeLa. Put plainly: Cytotoxicity tested against Hela C1 cells. Format: functional, cell-based. Conditions: Homo sapiens.
Experiment [27] has as its system HeLa. Put plainly: Cytotoxicity tested against Hela T5 cells. Format: functional, cell-based. Conditions: Homo sapiens.

In ChEMBL document CHEMBL1131902, “Reversal of resistance in multidrug resistance protein (MRP1)-overexpressing cells by LY329146” (Bioorg Med Chem Lett, 1999) one finds IC50 and RF data, which are given here for 7 compounds.

≈ marks a conversion by molar mass, not a printed value.

As to `COc1cccc2c1C(=O)c1c(O)c3c(c(O)c1C2=O)C[C@@](O)(C(=O)CO)C[C@@H]3O[C@H]1C[C@H](N)[C@H](O)[C@H](C)O1.O=C(c1ccc(OCCN2CCCC2)cc1)c1c(-c2ccc(O)cc2)sc2cc(O)ccc12`, the IC50 was 3.2 µg/mL in experiment [1] and 1 µg/mL in experiment [2]. Moreover, the RF in experiment [3] came to 1; in experiment [4], 3.
For the compound `COc1cccc2c1C(=O)c1c(O)c3c(c(O)c1C2=O)C[C@@](O)(C(=O)CO)C[C@@H]3O[C@H]1C[C@H](N)[C@H](O)[C@H](C)O1.CS(=O)(=O)N(c1ccc(-c2sc3cc(O)ccc3c2C(=O)c2ccc(OCCN3CCCCC3)cc2)cc1)S(C)(=O)=O`, the IC50 in experiment [5] worked out at 1.44 µg/mL; in [6], 0.444 µg/mL; in [7] it was 0.027 µg/mL; in [8] it was 1.11 µg/mL; in [9] it was 1.71 µg/mL; in [10], 0.224 µg/mL. In addition, the IC50 is 0.023 µg/mL in experiment [11]; 0.018 µg/mL in experiment [12]; 0.011 µg/mL in experiment [13]; 0.315 µg/mL in [14]; 0.213 µg/mL in experiment [15]; 1.06 µg/mL in experiment [16]. The same compound yielded an IC50 in [17] of 0.241 µg/mL.
With `COc1cccc2c1C(=O)c1c(O)c3c(c(O)c1C2=O)C[C@@](O)(C(=O)CO)C[C@@H]3O[C@H]1C[C@H](N)[C@H](O)[C@H](C)O1` [DOXORUBICIN], the IC50 was 1.88 µg/mL (≈ 3.46 µM) in experiment [18], 2.97 µg/mL (≈ 5.46 µM) in experiment [19] and 0.028 µg/mL (≈ 0.0515 µM) in experiment [20].
Consider `CC[C@]1(O)CC2CN(CCc3c([nH]c4ccccc34)[C@@](C(=O)OC)(c3cc4c(cc3OC)N(C=O)C3C45CCN4CC=C[C@@](CC)(C(OC(C)=O)[C@]3(O)C(=O)OC)[C@H]45)C2)C1.CS(=O)(=O)N(c1ccc(-c2sc3cc(O)ccc3c2C(=O)c2ccc(OCCN3CCCCC3)cc2)cc1)S(C)(=O)=O` (some centres not stated), for which the RF in experiment [21] came to 3.9; in [22] it was 2; in experiment [23], 2.8; in experiment [24], 1.6. In addition, the IC50 in experiment [14] came to 0.007 µg/mL; in experiment [15], 0.005 µg/mL; in experiment [16], 0.031 µg/mL; in [17] it was 0.013 µg/mL.
`CS(=O)(=O)N(c1ccc(-c2sc3cc(O)ccc3c2C(=O)c2ccc(OCCN3CCCCC3)cc2)cc1)S(C)(=O)=O` registered an IC50 in [25] of 0.8 µg/mL (≈ 1.27 µM).
For `CN(C)C(=O)CCSC(SCCC(=O)O)c1cccc(/C=C/c2ccc3ccc(Cl)cc3n2)c1` (configuration not stated) [MK-571], inhibition in experiment [25] was half-maximal at 0.5 µg/mL (≈ 0.971 µM) (IC50).
In the case of `CC[C@]1(O)C[C@H]2CN(CCc3c([nH]c4ccccc34)[C@@](C(=O)OC)(c3cc4c(cc3OC)N(C=O)[C@H]3[C@@](O)(C(=O)OC)[C@H](OC(C)=O)[C@]5(CC)C=CCN6CC[C@]43[C@@H]65)C2)C1` [VINCRISTINE], the IC50 was found to be 0.014 µg/mL (≈ 0.017 µM) in experiment [26] and 0.051 µg/mL (≈ 0.0618 µM) in [27].
